Assay results: patent US20190299005A1, “VAGUS NERVE STIMULATION AND MONITORING” (priority 2018, published 2019)
Entries after “also recorded” stand apart in the source; their conditions may differ. Counter-ions that a name gives are not always drawn.

Key:
[1] = test system: BALB/c mice (depressive-like behavior); experiment: Tail Suspension Test (TST) after oral treatment, intact and vagotomized mice; assay type: in vivo; details: for effect on depressive and anxiety behavior in vagotomized mice: sub-diaphragmatic vagotomy prior to oral administration; for dependency of the effect on the vagus nerve: vagotomized mice compared to mice with an intact vagus nerve; for depressive and anxiety behavior in mice: oral administration, intact vagus nerve
Procedure: BALB/c mice were orally fed antidepressants fluoxetine (18 mg/kg per day), sertraline (6 mg/kg per day) and bupropion (WELLBUTRIN®) (6 mg/kg per day) in the drinking water for 14 days, or JB-1 (2.5-4×10^9 bacteria/day) in the drinking water for 28 days.
1 day following oral treatments with the antidepressants, the BALB/c mice were tested for depressive-like behavior with the tail suspension test. Mice were removed from the colony room and moved to a behavioral testing room where they were allowed to habituate for 30 min. Following this period, mice were suspended by the tail using laboratory tape measured to 17 cm (Can et al., Journal of Visualized Experiments 59: e3769, 2012) from a suspension bar in a position whereby they could not escape or hold on to any surfaces. 2 cm of tape was affixed to the mouse tail with the remaining 15 cm used for suspension of the mouse. Animals were left suspended for a period of 6 mins. Animal behavior was video recorded and scored by a blinded observer for freezing behavior. Freezing was calculated as a percentage of total time. Following behavioral testing mice were returned to the housing room and resumed oral treatments for the duration of the study.
The Tail Suspension Test is a simple screening test for the behavioral effects of antianxiety agents and antidepressants in rodents. This test assesses the inter-individual differences in responses to stressful situations measured by duration of immobility.

[2] = test system: individual single vagal fibers (mesenteric nerve bundle of jejunal segment); experiment: Ex vivo vagal nerve fiber recording, test substance in lumen of jejunal segment, post hoc single unit burst analysis; set-up: species or system BALB/c mice; details: for Average inter-pulse duration, lower 95% CI / Average inter-pulse duration, upper 95% CI / Burst duration, lower 95% CI / Burst duration, upper 95% CI / Inter-burst duration, lower 95% CI / Inter-burst duration, upper 95% CI / Inter-pulse duration within bursts, lower 95% CI / Inter-pulse duration within bursts, upper 95% CI: drug in lumen; for Fraction average inter-pulse duration / Fraction burst duration / Fraction inter-burst duration / Fraction inter-pulse duration within bursts: fractional change (treatment−control)/control; for Fraction average inter-pulse duration: luminal fluoxetine 30 μM, sertraline 10 μM, bupropion 10 μM, JB-1 10^9 cfu/mL, squalamine 10 μM; for Fraction burst duration / Fraction inter-burst duration / Fraction inter-pulse duration within bursts: same luminal concentrations
Procedure: Adult BALB/c mice were killed by cervical dislocation. Then a 2-3 cm long jejunal segment with attached mesenteric tissue was removed and the oral and anal ends of the jejunal segment were cannulated with plastic tubing, gently emptied of contents by perfusing the lumen with Krebs buffer using a 3 mL plastic syringe whose tip was inserted into the oral opening. The cleaned jejunal segment was placed into a polystyrene petri dish (Falcon 351006, 50 mm×9 mm, Corning, N.Y., USA) filled with Krebs buffer of the following composition (in mM): 118 NaCl, 4.8 KCl, 25 NaHCO3, 1.0 NaH2PO4, 1.2 MgSO4, 11.1 glucose, and 2.5 CaCl2) bubbled with carbogen (95% 02 and 5% 002). The bottom of the dish was previously lined 1-2 mm deep with cured silicone elastomer SYLGARD®, Dow Corning, MI, USA.
Next the mesenteric nerve bundle was isolated by careful dissection under a stereomicroscope (Leika) using pointed number 5 forceps (Fine Science Tools), and the dish and contents were transferred to an inverted microscope (Nikon).
The gut segment and attached mesenteric tissue was then pinned linearly, without stretching, from oral to anal in the dish by pushing fine insect pins through the adherent mesentery into the silicone elastomer SYLGARD®. The lumen was gravity perfused (1 ml/min) at room temperature (20-25° C.), with oxygenated Krebs buffer and using several Mariotti bottles (McCarthy, Science 80: 100, 1934) attached to a plastic manifold (World Precision Instruments, Sarasota, Fla., USA). The serosal compartment was separately perfused with pre-warmed (35° C.) Krebs buffer at 4 ml/min. 3 μM nicardipine hydrochloride was added to the latter Krebs buffer to paralyze the smooth muscle to isolate chemosensory afferent signals from motility-related vagal responses (Perez-Burgos et al., Am J Physiol Gastrointest Liver Physiol 304: G211-220, 2013).
The nerve bundle was gently sucked onto a glass pipette attached to a patch-clamp electrode holder (CV-7B; Molecular Devices, Sunnyvale, Calif.), and extracellular nerve recordings were performed using a Multi-Clamp 700B amplifier and Digidata 1440A signal converter (Molecular Devices). Electrical signals were bandpass-filtered at 0.1-2 kHz, sampled at 20 kHz, and stored on a personal computer running pClamp 10 software (Molecular Devices) for post hoc analysis. Constitutive multiunit electrical activity was always recorded from the mesenteric nerve bundle even when the lumen was perfused with only Krebs buffer. Baseline recordings with Krebs buffer in the lumen were performed for 15 min, after which the luminal perfusate was switched to one containing Krebs buffer with substances to be tested (fluoxetine 30 μM, sertraline 10 μM, bupropion (WELLBUTRIN®) 10 μM, Lactobacillus rhamnosus JB-1 10^9 cfu/mL, or squalamine 10 μM). Recording in the presence of test substances was performed for up to 40 min after which the luminal perfusate was again switched to Krebs buffer and recording continued for up to 30 min.
Single units representing discharge from individual single vagal fibers were discriminated and identified by their unique spike waveform shape and amplitude (Rong et al., J Physiol 560: 867-881, 2004) using Dataview computer software (Heitler, Journal of Undergraduate Neuroscience Education 6: A1-A7, 2007). Dataview uses principal component analysis to sort the recorded multiunit spikes into individual single unit categories according to shape and amplitude (Heitler, Journal of Neuroscience Methods 185: 151-164, 2009).
Control and treatment periods were identified from event markers inserted at the time of recording. Then, for each channel (color-coded unit), spike bursts were detected using the “Poisson surprise” method devised by Legéndy & Salcman (Legendy & Salcman, J Neurophysiol 53: 926-939, 1985). A surprise was defined as −log 10(p), where p is the probability of a set of events occurring this close together by chance. […]

[3] = test system: individual single vagal fibers (mesenteric nerve bundle of jejunal segment); experiment: Ex vivo vagal nerve fiber recording from mice orally fed antidepressants, lumen perfused with buffer only; set-up: species or system BALB/c mice; details: fed in the drinking water for 14 days; fluoxetine 18, sertraline 6, bupropion 6 mg/kg per day
Procedure: The procedure described above in connection with Example 1 and 2 was repeated for the BALB/c mice orally fed with antidepressants fluoxetine (18 mg/kg per day), sertraline (6 mg/kg per day) and bupropion (WELLBUTRIN®) (6 mg/kg per day) in the drinking water for 14 days. Following the oral treatment, the mice were sacrificed and a jejunal segment with mesenteric tissue was recovered as described in Example 1. In this example, the lumens of the jejunal segments were, however, perfused only with KREPS buffer.
FIG. 16 illustrates the mean interval between spike firing, i.e., average inter-pulse durations, for luminal Krebs control, i.e., from control mice that have not been treated with any antidepressants, and for mice fed with fluoxetine, sertraline or bupropion (WELLBUTRIN®).

colonic motility = details: applied intraluminally in mice; cited from earlier work
vagal afferent = details: aged mice with reduced firing frequency; cited from earlier work
[4] = test system: patients with Parkinson's disease (PD) and severe constipation; details: cited from earlier work

## CC(NC(C)(C)C)C(=O)c1cccc(Cl)c1 (stereo not drawn) [Bupropion, bupropion]
[1]
  effect on depressive and anxiety behavior in vagotomized mice: present
  dependency of the effect on the vagus nerve: not to be dependent on the vagus nerve
[2]
  Average inter-pulse duration, lower 95% CI: 896 ms
  Average inter-pulse duration, upper 95% CI: 1081 ms
  Burst duration, lower 95% CI: 412 ms
  Burst duration, upper 95% CI: 543 ms
  Inter-burst duration, lower 95% CI: 49779 ms
  Inter-burst duration, upper 95% CI: 66105 ms
  Inter-pulse duration within bursts, lower 95% CI: 105 ms
  Inter-pulse duration within bursts, upper 95% CI: 124 ms
  Fraction average inter-pulse duration: 0.2919
  Fraction burst duration: 0.1778
  Fraction inter-burst duration: 1.152
  Fraction inter-pulse duration within bursts: 0.01576
[3]
  average inter-pulse durations as compared to control mice: no difference

## CNCCC(Oc1ccc(C(F)(F)F)cc1)c1ccccc1 (stereo not drawn) [Fluoxetine, fluoxetine]
[1]
  depressive and anxiety behavior in mice: decreased
  effect on depressive and anxiety behavior in vagotomized mice: disappeared; also recorded: no effect
  dependency of the effect on the vagus nerve: dependent on the vagus nerve
[2]
  Average inter-pulse duration, lower 95% CI: 612 ms
  Average inter-pulse duration, upper 95% CI: 983 ms
  Burst duration, lower 95% CI: 510 ms
  Burst duration, upper 95% CI: 771 ms
  Inter-burst duration, lower 95% CI: 11524 ms
  Inter-burst duration, upper 95% CI: 44175 ms
  Inter-pulse duration within bursts, lower 95% CI: 101 ms
  Inter-pulse duration within bursts, upper 95% CI: 138 ms
  Fraction average inter-pulse duration: −0.3964
  Fraction burst duration: 0.6424
  Fraction inter-burst duration: −0.1795
  Fraction inter-pulse duration within bursts: 0.2705
[2]; listed as fluoxetine
  Inter-burst duration, lower 95% CI: 11 524 ms
  Inter-burst duration, upper 95% CI: 44 175 ms

## CN[C@H]1CC[C@@H](c2ccc(Cl)c(Cl)c2)c2ccccc21 [Sertraline, sertraline]
[1]
  depressive and anxiety behavior in mice: decreased
  effect on depressive and anxiety behavior in vagotomized mice: disappeared
  dependency of the effect on the vagus nerve: dependent on the vagus nerve; also recorded: same dependency of action
[2]
  Average inter-pulse duration, lower 95% CI: 386 ms
  Average inter-pulse duration, upper 95% CI: 614 ms
  Burst duration, lower 95% CI: 516 ms
  Burst duration, upper 95% CI: 676 ms
  Inter-burst duration, lower 95% CI: 16160 ms
  Inter-burst duration, upper 95% CI: 36270 ms
  Inter-pulse duration within bursts, lower 95% CI: 87 ms
  Inter-pulse duration within bursts, upper 95% CI: 110 ms
  Fraction average inter-pulse duration: −0.1627
  Fraction burst duration: 0.6184
  Fraction inter-burst duration: −0.1554
  Fraction inter-pulse duration within bursts: 0.1936
[2]; listed as sertraline
  Inter-burst duration, lower 95% CI: 16 160 ms
  Inter-burst duration, upper 95% CI: 36 270 ms

## CC(C)[C@@H](CC[C@@H](C)[C@H]1CC[C@H]2[C@@H]3[C@H](O)C[C@H]4C[C@@H](NCCCNCCCCN)CC[C@]4(C)[C@H]3CC[C@]12C)OS(=O)(=O)O [Squalamine, 3(3β,5α,7α,24R)-3-({3-[(4-aminobutyl)amino]propyl}amino)-7-hydroxycholestan-24-yl hydrogen sulfate]
[2]
  Average inter-pulse duration, lower 95% CI: 334 ms
  Average inter-pulse duration, upper 95% CI: 675 ms
  Burst duration, lower 95% CI: 111 ms
  Burst duration, upper 95% CI: 1954 ms
  Inter-burst duration, lower 95% CI: 11233 ms
  Inter-burst duration, upper 95% CI: 34229 ms
  Inter-pulse duration within bursts, lower 95% CI: 98 ms
  Inter-pulse duration within bursts, upper 95% CI: 136 ms
  Fraction average inter-pulse duration: −0.183
  Fraction burst duration: 0.6752
  Fraction inter-burst duration: −0.2957
  Fraction inter-pulse duration within bursts: 0.1394
[2]; listed as squalamine
  Burst duration, lower 95% CI: 110 ms
  Burst duration, upper 95% CI: 1 954 ms
  Inter-burst duration, lower 95% CI: 11 233 ms
  Inter-burst duration, upper 95% CI: 34 229 ms
  Inter-pulse duration within bursts, upper 95% CI: 136 ms
[2]; squalamine 10 μM in lumen
  vagus code compared with other antidepressants: almost identical vagus code as sertraline
Colonic motility
  age and loperamide-related dysmotility: reversed
  effects on colonic motility: prokinetic effects
Vagal afferent
  vagal afferent firing frequency: increases
[4]; increasing dosage schedule, 50 patients
  relief of constipation: positive beneficial effects
[4]; while patients were taking the drug
  neurological symptoms in PD patients like hallucinations, sleep and circadian rhythm disturbances: attenuated or prevented
